Results published in the NIST ThermoML archive (doi:10.1021/je060179e).

Assay: xn = mol fraction of the nth substance listed
Conditions: for mass density: 101 kPa, Liquid

CCCCCCCCO [octan-1-ol] + CCCCCCC
Conditions	mass density [kg/m3]	surface tension liquid-gas [mN/m]
288.15 K, x2 = 0.0514	822.18	–
288.15 K, x2 = 0.0516	–	26.75
288.15 K, x2 = 0.0995	–	26.18
288.15 K, x2 = 0.1001	816.02	–
288.15 K, x2 = 0.1845	–	25.05
288.15 K, x2 = 0.2015	802.93	–
288.15 K, x2 = 0.3082	788.6	–
288.15 K, x2 = 0.3346	–	23.74
288.15 K, x2 = 0.4054	775.17	–
288.15 K, x2 = 0.4142	–	23.12
288.15 K, x2 = 0.5034	–	22.6
288.15 K, x2 = 0.517	759.5	–
288.15 K, x2 = 0.6074	–	22.16
288.15 K, x2 = 0.6305	743.28	–
288.15 K, x2 = 0.6639	–	21.9
288.15 K, x2 = 0.7114	731.48	–
288.15 K, x2 = 0.8136	716.21	–
288.15 K, x2 = 0.8325	–	21.24
288.15 K, x2 = 0.9061	702.2	–
288.15 K, x2 = 0.9105	–	20.94
288.15 K, x2 = 0.9518	695.28	–
288.15 K, x2 = 0.9561	–	20.87
293.15 K, x2 = 0.0514	818.71	–
293.15 K, x2 = 0.0564	–	26.14
293.15 K, x2 = 0.1001	812.51	–
293.15 K, x2 = 0.1057	–	25.54
293.15 K, x2 = 0.2015	799.33	–
293.15 K, x2 = 0.2084	–	24.34
293.15 K, x2 = 0.3082	784.92	–
293.15 K, x2 = 0.3112	–	23.38
293.15 K, x2 = 0.4054	771.41	–
293.15 K, x2 = 0.4066	–	22.59
293.15 K, x2 = 0.5114	–	21.96
293.15 K, x2 = 0.517	755.65	–
293.15 K, x2 = 0.6092	–	21.52
293.15 K, x2 = 0.6305	739.34	–
293.15 K, x2 = 0.7114	727.47	–
293.15 K, x2 = 0.7164	–	20.99
293.15 K, x2 = 0.8124	–	20.62
293.15 K, x2 = 0.8136	712.11	–
293.15 K, x2 = 0.8965	–	20.48
293.15 K, x2 = 0.9061	698.04	–
293.15 K, x2 = 0.9518	691.08	–
293.15 K, x2 = 0.9573	–	20.26
298.15 K, x2 = 0.0514	815.21	–
298.15 K, x2 = 0.0541	–	25.64
298.15 K, x2 = 0.1001	808.98	–
298.15 K, x2 = 0.1083	–	25.03
298.15 K, x2 = 0.2004	–	23.91
298.15 K, x2 = 0.2015	795.72	–
298.15 K, x2 = 0.3082	781.22	–
298.15 K, x2 = 0.3137	–	22.82
298.15 K, x2 = 0.405	–	22.09
298.15 K, x2 = 0.4054	767.63	–
298.15 K, x2 = 0.5089	–	21.44
298.15 K, x2 = 0.517	751.77	–
298.15 K, x2 = 0.6085	–	20.94
298.15 K, x2 = 0.6305	735.37	–
298.15 K, x2 = 0.7107	–	20.46
298.15 K, x2 = 0.7114	723.44	–
298.15 K, x2 = 0.8072	–	20.15
298.15 K, x2 = 0.8136	707.99	–
298.15 K, x2 = 0.9061	693.84	–
298.15 K, x2 = 0.9071	–	19.82
298.15 K, x2 = 0.9518	686.85	–
298.15 K, x2 = 0.9536	–	19.64
303.15 K, x2 = 0.0504	–	25.18
303.15 K, x2 = 0.0514	811.7	–
303.15 K, x2 = 0.1001	805.43	–
303.15 K, x2 = 0.1033	–	24.57
303.15 K, x2 = 0.2015	792.09	–
303.15 K, x2 = 0.2052	–	23.46
303.15 K, x2 = 0.3082	777.49	–
303.15 K, x2 = 0.3108	–	22.37
303.15 K, x2 = 0.4054	763.85	–
303.15 K, x2 = 0.4134	–	21.56
303.15 K, x2 = 0.5153	–	20.94
303.15 K, x2 = 0.517	747.87	–
303.15 K, x2 = 0.6005	–	20.46
303.15 K, x2 = 0.6305	731.38	–
303.15 K, x2 = 0.7067	–	19.98
303.15 K, x2 = 0.7114	719.37	–
303.15 K, x2 = 0.8043	–	19.58
303.15 K, x2 = 0.8136	703.84	–
303.15 K, x2 = 0.9047	–	19.22
303.15 K, x2 = 0.9061	689.61	–
303.15 K, x2 = 0.9486	–	19.14
303.15 K, x2 = 0.9518	682.59	–
308.15 K, x2 = 0.0514	808.16	–
308.15 K, x2 = 0.0562	–	24.54
308.15 K, x2 = 0.1001	801.85	–
308.15 K, x2 = 0.1017	–	24.05
308.15 K, x2 = 0.2015	788.43	–
308.15 K, x2 = 0.2078	–	22.86
308.15 K, x2 = 0.3065	–	21.92
308.15 K, x2 = 0.3082	773.75	–
308.15 K, x2 = 0.4054	760.1	–
308.15 K, x2 = 0.4117	–	21.11
308.15 K, x2 = 0.5064	–	20.53
308.15 K, x2 = 0.517	743.94	–
308.15 K, x2 = 0.6065	–	20
308.15 K, x2 = 0.6305	727.36	–
308.15 K, x2 = 0.7081	–	19.61
308.15 K, x2 = 0.7114	715.28	–
308.15 K, x2 = 0.8	–	19.27
308.15 K, x2 = 0.8136	699.65	–
308.15 K, x2 = 0.9028	–	18.88
308.15 K, x2 = 0.9061	685.35	–
308.15 K, x2 = 0.9483	–	18.82
308.15 K, x2 = 0.9518	678.3	–
